“And” between values parts separate entries of the source, which are not always exact repeats. Equal values may be shown once.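 The compound was tested at five concentrations on cells cultured in 96-well plates, with a 48-hour exposure period. The concentration for 50% growth inhibition is given as GI50. The concentration for full growth arrest is given as TGI.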
How the values were obtained:
Test in all cases: NCI-60 cell line screen, 48 h
[1] = tested on: HT29 colon
[2] = tested on: OVCAR-8 ovarian
[3] = tested on: UACC-62 melanoma
[4] = tested on: TK-10 renal
[5] = tested on: HL-60(TB) leukemia
[6] = tested on: OVCAR-4 ovarian
[7] = tested on: EKVX NSCLC
[8] = tested on: BT-549 breast
[9] = tested on: HOP-62 NSCLC
[10] = tested on: SK-MEL-5 melanoma

Cc1[nH]c(=O)c2oc3cc4ccccc4cc3c2c1C(=O)O
TGI [1]: > 10 µM | TGI [2]: > 10 µM | TGI [3]: > 10 µM | TGI [4]: > 10 µM | TGI [5]: > 10 µM | TGI [6]: > 10 µM | TGI [7]: > 10 µM | TGI [8]: > 10 µM

N#CCc1nc(-c2cc3ccccc3oc2=O)cs1
TGI [9]: > 100 µM | TGI [1]: > 100 µM | TGI [2]: > 100 µM | TGI [3]: 45.6 µM | TGI [4]: > 100 µM | TGI [5]: > 100 µM | TGI [6]: > 100 µM | TGI [10]: 64 µM | TGI [7]: > 100 µM | TGI [8]: 66.8 µM

Cc1nc2ccc(S(=O)(=O)O)cc2c(=O)n1-c1ccc(C(=O)NN2C(=O)C(Cl)C2c2cccs2)cc1 (centres undefined)
TGI [9]: 60.1 µM | TGI [1]: > 100 µM | TGI [2]: > 100 µM | TGI [3]: > 100 µM | TGI [4]: > 100 µM | TGI [5]: 51.8 µM | TGI [6]: 79.7 µM | TGI [10]: > 100 µM | TGI [7]: 35.3 µM | TGI [8]: > 100 µM

C(=C\c1cc[n+](CCc2ccccc2)cc1)/c1ccccc1
TGI [9]: 40.4 µM | TGI [1]: 35.1 µM | TGI [2]: 19.5 µM | TGI [3]: 22.9 µM | TGI [4]: > 100 µM | TGI [6]: 50.9 µM | TGI [10]: 5.73 µM | TGI [7]: > 100 µM | TGI [8]: 57.9 µM

N#CC1=C(S)N(C2OC(CO)C(O)C(O)C2O)C(c2ccccc2)=CC1c1ccco1 (centres undefined)
TGI [9]: > 100 µM | TGI [1]: > 100 µM | TGI [2]: > 100 µM | TGI [3]: 42.1 µM | TGI [4]: > 100 µM | TGI [5]: > 100 µM | TGI [6]: > 100 µM | TGI [10]: > 100 µM | TGI [8]: > 100 µM

O=C(c1c(F)c(F)c(F)c(F)c1F)n1c(=S)n(C(=O)c2c(F)c(F)c(F)c(F)c2F)c2ccccc21
TGI [9]: > 100 µM | TGI [1]: > 100 µM | TGI [2]: > 100 µM | TGI [3]: > 100 µM | TGI [4]: > 100 µM | TGI [5]: 45.6 µM | TGI [6]: > 100 µM | TGI [10]: > 100 µM | TGI [8]: > 100 µM

Cc1cc(C=O)c2c(=O)c3c(O)ccc(/C=C/C(C)C)c3oc2c1
TGI [9]: > 100 µM | TGI [1]: > 100 µM | TGI [2]: > 100 µM | TGI [3]: > 100 µM | TGI [4]: > 100 µM | TGI [5]: 59.4 µM | TGI [6]: > 100 µM | TGI [10]: > 100 µM

CC(C)(C)n1c(=O)n2c(-c3ccccc3)c(-c3ccccc3)n2c1=O
TGI [1]: > 100 µM | TGI [2]: > 100 µM | TGI [3]: > 100 µM | TGI [4]: > 100 µM | TGI [5]: > 100 µM | TGI [6]: > 100 µM | TGI [10]: > 100 µM | TGI [7]: > 100 µM | TGI [8]: > 100 µM

COC(=O)N/N=c1\cc(C(=O)Nc2ccc(C)c(C)c2)oc2cc(O)ccc12
TGI [9]: > 100 µM | TGI [1]: > 100 µM | TGI [2]: > 100 µM | TGI [3]: > 100 µM | TGI [4]: > 100 µM | TGI [5]: > 100 µM | TGI [6]: > 100 µM | TGI [10]: > 100 µM | TGI [7]: > 100 µM

COC(=O)C1=C(OC)C(=P2(c3ccccc3)CC(c3ccccc3)=C2c2ccccc2)C(C(=O)OC)=C1C(=O)OC (centres undefined)
TGI [9]: > 100 µM | TGI [2]: > 100 µM | TGI [3]: > 100 µM | TGI [4]: > 76 µM | TGI [5]: 3.22 µM | TGI [6]: > 100 µM | TGI [10]: > 81.9 µM | TGI [7]: > 100 µM | TGI [8]: > 100 µM

CN(Cc1cccc2ccsc12)/N=C\c1ccc(Cl)cc1
TGI [9]: > 100 µM | TGI [1]: > 100 µM | TGI [2]: > 100 µM | TGI [3]: > 100 µM | TGI [4]: > 100 µM | TGI [6]: > 100 µM | TGI [10]: 41.6 µM | TGI [7]: > 100 µM | TGI [8]: > 100 µM

CCOc1ccc(OP2(=O)NC(=O)C=C(C)N2)cc1 (centres undefined)
TGI [9]: > 100 µM | TGI [1]: > 100 µM | TGI [2]: > 100 µM | TGI [3]: > 100 µM | TGI [4]: > 100 µM | TGI [5]: > 100 µM | TGI [6]: > 100 µM | TGI [10]: > 100 µM | TGI [7]: > 100 µM

CCN(CC)c1ccc(Cl)c2c1C(O)(C(C)C)C2(C)C (centres undefined)
TGI [9]: 39 µM | TGI [1]: 24.5 µM | TGI [2]: 33.4 µM | TGI [4]: 30.2 µM | TGI [5]: 38.8 µM | TGI [6]: 33.3 µM | TGI [10]: 28.8 µM

CC(=O)Nc1ccc2c(c1)C(=O)c1ccccc1-2
TGI [9]: > 100 µM | TGI [1]: > 100 µM | TGI [2]: > 100 µM | TGI [3]: > 100 µM | TGI [4]: > 100 µM | TGI [5]: > 100 µM | TGI [7]: > 100 µM

CS(=O)(=O)CCC1CCC(=O)O1 (centres undefined)
TGI [9]: > 100 µM | TGI [1]: > 100 µM | TGI [2]: > 100 µM | TGI [4]: > 100 µM | TGI [5]: > 100 µM | TGI [10]: > 100 µM | TGI [7]: > 100 µM | TGI [8]: > 100 µM

CCCCCCCCCCCCCCCCOP(=O)([O-])OCC[N+](C)(C)C1CC(C)(C)N(O)C(C)(C)C1
TGI [9]: > 100 µM | TGI [1]: > 100 µM | TGI [2]: > 100 µM | TGI [3]: > 100 µM | TGI [4]: > 100 µM | TGI [6]: > 100 µM | TGI [10]: > 100 µM | TGI [7]: > 100 µM | TGI [8]: > 100 µM

COC(=O)[C@@H]1Cc2ccc(OC)c(c2)OCCC(=O)N1
TGI [9]: > 100 µM | TGI [1]: > 100 µM | TGI [2]: > 100 µM | TGI [3]: > 100 µM | TGI [4]: > 100 µM | TGI [6]: > 100 µM | TGI [10]: > 100 µM | TGI [7]: > 100 µM | TGI [8]: > 100 µM

Cc1nc2ccccc2n1Cc1nnc(-c2ccccc2)o1
TGI [9]: > 100 µM | TGI [1]: > 100 µM | TGI [2]: > 100 µM | TGI [3]: > 100 µM | TGI [4]: > 100 µM | TGI [5]: > 100 µM | TGI [10]: > 100 µM | TGI [7]: > 100 µM | TGI [8]: > 100 µM

COC(=O)/C=C1\C(CO[Si](C)(C)C(C)(C)C)OC(n2ccc(=O)[nH]c2=O)C1O (centres undefined)
TGI [9]: > 31.1 µM | TGI [1]: 80.5 µM | TGI [2]: > 100 µM | TGI [3]: 54.1 µM | TGI [4]: > 100 µM | TGI [6]: > 100 µM | TGI [10]: 21.7 µM | TGI [7]: 59.8 µM | TGI [8]: > 80.5 µM

CCOC(=O)c1cn(-c2ccc([N+](=O)[O-])cc2)c(=S)n2c1nc1ccccc12
TGI [9]: > 100 µM | TGI [1]: > 100 µM | TGI [2]: > 100 µM | TGI [3]: > 100 µM | TGI [6]: > 100 µM | TGI [10]: > 100 µM | TGI [7]: > 100 µM | TGI [8]: > 100 µM

C=CCN(c1cc(O)c2c(c(C)cn2S(=O)(=O)c2ccccc2)c1[N+](=O)[O-])S(C)(=O)=O
TGI [9]: > 100 µM | TGI [1]: > 100 µM | TGI [2]: > 100 µM | TGI [4]: > 100 µM | TGI [5]: > 100 µM | TGI [6]: > 100 µM | TGI [10]: > 100 µM | TGI [7]: > 100 µM | TGI [8]: > 100 µM

N#CCC(=O)N/N=C\C(O)C(O)C(O)C(O)CO (centres undefined)
TGI [9]: > 100 µM | TGI [1]: > 100 µM | TGI [2]: > 100 µM | TGI [3]: > 100 µM | TGI [4]: > 100 µM | TGI [5]: > 100 µM | TGI [10]: > 100 µM | TGI [8]: > 100 µM

Cc1nn(C(=O)Cc2ccccc2)c2c1C(c1ccc(/C=C/c3ccccc3)cc1)SC(N)=N2 (centres undefined)
TGI [9]: > 100 µM | TGI [1]: > 100 µM | TGI [2]: > 100 µM | TGI [3]: > 100 µM | TGI [4]: > 100 µM | TGI [5]: > 100 µM | TGI [10]: > 100 µM | TGI [7]: > 100 µM | TGI [8]: > 100 µM

Cc1cnc2[nH]c(-c3cccc4ccccc34)cc(=O)c2c1
GI50 [9]: 0.127 µM | TGI [9]: > 100 µM | TGI [1]: 0.0121 µM and 0.0273 µM | TGI [2]: 0.108 µM | TGI [3]: > 100 µM | TGI [5]: 0.000577 µM | TGI [6]: > 100 µM | TGI [7]: > 100 µM | TGI [8]: > 100 µM

From PubChem BioAssay (NCI)
